Biological target: T1, porcine pancreatic lipase (from pancreatin) (Sus scrofa, UniProt P00591)
T1 construct: pancreatin (Porcine, USP×8, P7585); purchased Sigma-Aldrich P7585; host or cells: porcine pancreas extract (pancreatin)
T1 sequence (P00591 1-450): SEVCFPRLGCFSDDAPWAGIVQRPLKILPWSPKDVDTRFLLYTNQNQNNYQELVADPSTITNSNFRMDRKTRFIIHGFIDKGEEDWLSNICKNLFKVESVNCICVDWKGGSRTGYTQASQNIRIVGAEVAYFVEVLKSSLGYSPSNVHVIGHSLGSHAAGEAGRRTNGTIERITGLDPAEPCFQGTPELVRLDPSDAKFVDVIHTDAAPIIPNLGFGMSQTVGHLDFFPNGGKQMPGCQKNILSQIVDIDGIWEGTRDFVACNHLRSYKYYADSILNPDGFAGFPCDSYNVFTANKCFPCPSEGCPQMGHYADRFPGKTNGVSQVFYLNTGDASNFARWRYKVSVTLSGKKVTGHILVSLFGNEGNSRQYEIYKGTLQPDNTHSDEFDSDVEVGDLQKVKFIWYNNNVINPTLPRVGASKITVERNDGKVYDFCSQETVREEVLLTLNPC
T1 sequence (P02703 23-112 partner): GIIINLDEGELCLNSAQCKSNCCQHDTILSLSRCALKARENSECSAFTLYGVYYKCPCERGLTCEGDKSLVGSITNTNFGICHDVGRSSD
Assay: In vitro digestion in simulated intestinal fluid (SIF), pH-stat
Type: in vitro ADME
Settings: SIF alone; emulsion with 200 mg fat; pH 6.8, 37° C.
Experimental: 10 wt % oil in water emulsions stabilised by 0.3 wt % polyoxyethylene sorbitan mono-oleate (Tween® 80) were prepared by mixing the Tween 80 into the oil phase at 40° C., then mixing with the water phase using a magnetic stirrer. An emulsion was then created using a Hielscher UP 400S ultrasonic probe homogeniser equipped with a 5 mm diameter rod-like probe by applying 100% amplitude at 100% cycle for 2 minutes whilst the sample was cooled using ice water.
The lipid emulsion (2 mL) containing 200 mg of fat was subjected to gastrointestinal in vitro lipolysis. […]
The intestinal digestion step was performed in the pH stat where the pH was kept constant at 6.8 by addition of NaOH (0.05 M). […] During the intestinal phase of digestion, the kinetics of digestion were followed using a pH-stat (TIM856, Radiometer) technique and expressed as titratable acid (rather than fatty acid) that was calculated by the equation: TA=VNaOH×0:05×1000 […]
Since the digestion of dietary lipids involves lipases of both gastric and intestinal origin, lipid digestibility was assessed using two digestion models i) simulated intestinal fluid (SIF) with porcine pancreatic lipase (PPL) and ii) sequential digestion in simulated gastric fluid (SGF) with rabbit gastric lipase (RGL) followed by simulated intestinal fluid (SIF) with porcine pancreatic lipase (PPL).

CCCC(=O)OCC(COC(=O)CCC)OC(=O)CCC [tributyrin]
initial rate of lipolysis: 223 ± 59 µmol/min

Source: US12648923B2, “Dietary butyrate and its uses” (SOCIETE DES PRODUITS NESTLE S.A., priority 2019, dated 2026)
